In ChEMBL document CHEMBL3508140 (2016):

What was measured:
[1] = Recovery of 7-deoxy epirubicinol aglycone following intravenous epirubicin at 4 mg.Kg-1 dose in rat; assay type: ADME, organism-based, SD, Plasma; settings: in vivo
[2] = Detection of 7-deoxydoxorubicinol aglycone in plasma following single intravenous doxorubicin at 10 mg.Kg-1 dose in female mouse bearing colon tumor; assay type: ADME, organism-based, BALB/c; set-up: dose 10 mg.Kg-1, dosed compound id 2.46809e+06, dosed compound name Doxorubicin, gender F, regimen Single, route intravenous, sampling time 48 h; settings: in vivo
[3] = Detection of 7-deoxydoxorubicinol aglycone in heart following single intravenous doxorubicin at 10 mg.Kg-1 dose in female mouse bearing colon tumor; assay type: ADME, organism-based, BALB/c; set-up: dose 10 mg.Kg-1, dosed compound id 2.46809e+06, dosed compound name Doxorubicin, gender F, regimen Single, route intravenous, sampling time 48 h; settings: in vivo
[4] = AUC values (0-48 h) of 7-deoxy doxorubicin-aglycone in heart following single intravenous doxorubicin at 10 mg.Kg-1 dose in female mouse bearing colon tumor; assay type: ADME, organism-based, BALB/c; set-up: time < 48 hr, dose 10 mg.Kg-1, dosed compound id 2.46809e+06, dosed compound name Doxorubicin, gender F, regimen Single, route intravenous, sampling time 48 h; settings: in vivo
[5] = Recovery of 7-deoxy epirubicinol aglycone following intraperitoneal epirubicin at 4 mg.Kg-1 dose in mouse; assay type: ADME, organism-based, CD-1, Plasma; settings: in vivo, ip
[6] = AUC values (0-48 h) of 7-deoxy epirubicinol aglycone in heart following single intravenous epirubicin at 10 mg.Kg-1 dose in female mouse bearing colon tumor; assay type: ADME, organism-based, BALB/c; settings: in vivo
[7] = Recovery of 7-deoxy epirubicinol aglycone following intraperitoneal epirubicin at 4 mg.Kg-1 dose in hamster; assay type: ADME, organism-based, Cricetulus griseus, Plasma; settings: chinese hamster, in vivo, ip
[8] = Detection of 7-deoxydoxorubicinol aglycone in heart following single intravenous epirubicin at 10 mg.Kg-1 dose in female mouse bearing colon tumor; assay type: ADME, organism-based, BALB/c; settings: in vivo
[9] = Detection of 7-deoxydoxorubicinol aglycone in tumor following single intravenous doxorubicin at 10 mg.Kg-1 dose in female mouse bearing colon tumor; assay type: ADME, organism-based, BALB/c, Neoplasm; set-up: dose 10 mg.Kg-1, dosed compound id 2.46809e+06, dosed compound name Doxorubicin, gender F, regimen Single, route intravenous, sampling time 48 h; settings: in vivo
[10] = Detection of 7-deoxydoxorubicinol aglycone in plasma following single intravenous epirubicin at 10 mg.Kg-1 dose in female mouse bearing colon tumor; assay type: ADME, organism-based, BALB/c; settings: in vivo
[11] = AUC values (0-48 h) of 7-deoxy doxorubicin-aglycone in plasma following single intravenous doxorubicin at 10 mg.Kg-1 dose in female mouse bearing colon tumor; assay type: ADME, organism-based, BALB/c; set-up: time < 48 hr, dose 10 mg.Kg-1, dosed compound id 2.46809e+06, dosed compound name Doxorubicin, gender F, regimen Single, route intravenous, sampling time 48 h; settings: in vivo
[12] = AUC values (0-48 h) of 7-deoxy doxorubicin-aglycone in tumor following single intravenous doxorubicin at 10 mg.Kg-1 dose in female mouse bearing colon tumor; assay type: ADME, organism-based, BALB/c, Neoplasm; set-up: time < 48 hr, dose 10 mg.Kg-1, dosed compound id 2.46809e+06, dosed compound name Doxorubicin, gender F, regimen Single, route intravenous, sampling time 48 h; settings: in vivo
[13] = Recovery of 7-deoxy epirubicinol aglycone following intravenous epirubicin at 4 mg.Kg-1 dose in rabbit; assay type: ADME, organism-based, Oryctolagus cuniculus, New Zealand White, Plasma; settings: in vivo
[14] = Recovery of 7-deoxy epirubicinol aglycone following intravenous epirubicin at 1.5 mg.Kg-1 dose in man; assay type: ADME, organism-based, Plasma; settings: human, in vivo
[15] = Detection of 7-deoxydoxorubicinol aglycone in tumor following single intravenous epirubicin at 10 mg.Kg-1 dose in female mouse bearing colon tumor; assay type: ADME, organism-based, BALB/c, Neoplasm; settings: in vivo
[16] = AUC values (0-48 h) of 7-deoxy epirubicinol aglycone in plasma following single intravenous epirubicin at 10 mg.Kg-1 dose in female mouse bearing colon tumor; assay type: ADME, organism-based, BALB/c; settings: in vivo
[17] = AUC values (0-48 h) of 7-deoxy epirubicinol aglycone in tumor following single intravenous epirubicin at 10 mg.Kg-1 dose in female mouse bearing colon tumor; assay type: ADME, organism-based, BALB/c, Neoplasm; settings: in vivo

COc1cccc2c1C(=O)c1c(O)c3c(c(O)c1C2=O)C[C@@](O)(C(O)CO)CC3 (some centres not stated)
Compound recovery [1]: 4.2 10^-9M | Compound recovery [2]: OUTCOME = Observed | Compound recovery [3]: OUTCOME = Observed | AUC [4]: 218 nmol·min/g | Compound recovery [5]: 20 10^-9M | AUC [6]: 66 nmol·min/g | Compound recovery [7]: 21 10^-9M | Compound recovery [8]: OUTCOME = Observed | Compound recovery [9]: OUTCOME = Observed | Compound recovery [10]: OUTCOME = Observed | AUC [11]: 83.3 nmol·min/mL | AUC [12]: 204 nmol·min/g | Compound recovery [13]: 4.2 10^-9M | Compound recovery [14]: 25 10^-9M | Compound recovery [15]: OUTCOME = Observed | AUC [16]: 53.9 nmol·min/mL | AUC [17]: 99 nmol·min/g
